Tested on: recurrent myocardial infarction (RMI) in CARE patients
Experiment: CARE trial: recurrent MI in pravastatin- vs placebo-treated patients stratified by SNP genotype
Assay type: in vivo, human
Conditions: for HR, on-trial MI, Unadjusted: placebo = ref 1.00; for HR, on-trial MI, Adjusted: placebo = ref 1.00, adjusted for age, smoking, hypertension, diabetes, BMI, LDL-C, HDL-C; for OR_dom, risk of RMI / OR_het, risk of RMI / OR_maj, risk of RMI / OR_min, risk of RMI / OR, risk of RMI: placebo- vs. pravastatin-treated patients; for Risk Reduction by Statin (Pravastatin vs. Placebo) OR: odds ratio of recurrent MI, pravastatin- vs placebo-treated, heterozygous carriers of hCV3054799 only
Excerpt: In order to identify genetic markers associated with acute coronary events (e.g. MI, stroke, unstable angina, congestive heart failure, etc.) or response to statin treatment for the prevention of coronary events, samples were genotyped in two clinical trials: the Cholesterol and Recurrent Events (CARE) study (a randomized multicentral double-blinded trial on secondary prevention of acute coronary events with pravastatin; Sacks et al., Am. J. Cardiol. 68: 1436-1446[1991]), and the West of Scotland Coronary Prevention Study (WOSCOPS) study (Shepherd et al., N Eng J Med 333 (20), pp. 1301-7, Nov. 16, 1995; Packard et al., N Eng J Med 343 (16), pp. 1148-55, Oct. 19, 2000).
A well-documented myocardial infarction (MI) was one of the enrollment criteria for entry into the CARE study. Patients were enrolled in the CARE trial from 80 participating study centers. […] Patients were randomized to receive either 40 mg of pravastatin once daily or a matching placebo. The primary endpoint of the trial was death from coronary heart disease and the median duration of follow-up was 5.0 years (range, 4.0 to 6.2 years). All individuals included in the study had signed informed consent forms and the study protocol was approved by the respective Institutional Review Boards (IRBs).
For genotyping SNPs in CARE patient samples, DNA was extracted from blood samples using conventional DNA extraction methods such as the QIAamp kit from Qiagen. Genotypes were obtained by a method similar to that described by Lannone (M. A. Lannone et al., Cytometry 39(2):131-140 [Feb. 1, 2000]; also described in section “SNP DETECTION REAGENTS,” supra). Briefly, target DNA was amplified by multiplex PCR, the amplified product was submitted to a multiplex oligo ligation assay (OLA), the specific ligated products were hybridized to unique universal “ZIP code” oligomer sequences covalently attached to Luminex xMAP® Multi-Analyte COOH Microspheres, and these hybridization products/microspheres were detected in a rapid automated multiplex system using the Luminex 100 instrument. Alternatively, allele specific primers were designed for detecting each SNP and genotypes were obtained on an ABI PRISM® 7900HT Sequence Detection PCR system (Applied Biosystems) by allele-specific PCR, similar to the method described by Germer et al (Germer S., Holland M. J., Higuchi R. 2000, Genome Res. 10: 258-266). […]
In analyzing the CARE patients, statistical analysis was performed with SAS version 9. Cox proportional hazard models (Wald tests) were used in CARE to assess the association of genotype with both the risk of incident MI in the placebo arm and the effect of on MI pravastatin compared to placebo in subgroups defined by genotypes. In analyzing the WOSCOPS patients, a conditional logistic regression model was used in WOSCOPS given that the controls had been previously matched to the cases. The column entitled “On-trial MI” lists the number of patients who suffered an RMI during the clinical trial period.
An additional 175 markers were analyzed in samples from the CARE study (secondary MI prevention trial). […] Of the cases, 150 received placebo treatment and 114 received pravastatin; of the controls, 1290 received placebo and 1359 received pravastatin.
The genotypes for each SNP were tested for association with RMI. This genotypic test of association (i.e., minor homozygote genotype vs. major, and heterozygote vs. major) was performed separately for placebo-treated patients and for all patients unstratified by treatment group, using the Fisher's exact method. […] The reliability of the OR for each particular SNP is confirmed by its respective 95% confidence interval (CI) and P value, also shown. From Table 14 one can see the association of several SNPs with MI risk when they are present in a Homozygous Minor genotype (association based on an OR>1, the lower limit of the 95% CI>1 and a P value <0.05). […]

[1] = marker hCV2741051, heterozygous
[2] = marker hCV2741051, major homozygous
[3] = marker hCV2741051, minor homozygous
[4] = marker hCV25745415, heterozygous
[5] = marker hCV25745415, major homozygous
[6] = marker hCV25745415, minor homozygous

CC[C@H](C)C(=O)O[C@H]1C[C@H](O)C=C2C=C[C@H](C)[C@H](CC[C@@H](O)C[C@@H](O)CC(=O)O)[C@H]21 [pravastatin]
HR, on-trial MI, Unadjusted (KIF6 hCV3054799 AA): 0.86
HR, on-trial MI, Adjusted (KIF6 hCV3054799 AA): 0.80
HR, on-trial MI, Unadjusted (KIF6 hCV3054799 GG + GA): 0.63
HR, on-trial MI, Adjusted (KIF6 hCV3054799 GG + GA): 0.63
OR_dom, risk of RMI (marker hCV465412, Dominant): 0.50
OR_het, risk of RMI (marker hCV465412, Heterozygous): 0.47
OR_maj, risk of RMI (marker hCV465412, Major Homozygous): 0.80
OR_min, risk of RMI (marker hCV465412, Minor Homozygous): 1.35
OR, risk of RMI (marker hCV881283, heterozygous): 0.19
OR, risk of RMI (marker hCV881283, major homozygous): 0.76
OR, risk of RMI (marker hCV881283, minor homozygous): 0.00
OR, risk of RMI (marker hCV1603656, heterozygous): 0.33
OR, risk of RMI (marker hCV1603656, major homozygous): 0.87
OR, risk of RMI (marker hCV1603656, minor homozygous): 0.00
OR_dom, risk of RMI (marker hCV2741051, Dominant): 1.07
OR, risk of RMI [1]: 1.02
OR_het, risk of RMI [1]: 1.02
OR, risk of RMI [2]: 0.55
OR_maj, risk of RMI [2]: 0.55
OR, risk of RMI [3]: 1.68
OR_min, risk of RMI [3]: 1.68
OR_dom, risk of RMI (marker hCV3054799, Dominant): 0.65
OR_het, risk of RMI (marker hCV3054799, Heterozygous): 0.57
OR_maj, risk of RMI (marker hCV3054799, Major Homozygous): 0.98
OR_min, risk of RMI (marker hCV3054799, Minor Homozygous): 1.00
OR_dom, risk of RMI (marker hCV7514870, Dominant): 0.69
OR_het, risk of RMI (marker hCV7514870, Heterozygous): 0.83
OR_maj, risk of RMI (marker hCV7514870, Major Homozygous): 0.80
OR_min, risk of RMI (marker hCV7514870, Minor Homozygous): 0.37
OR_dom, risk of RMI (marker hCV11450617, Dominant): 0.62
OR_het, risk of RMI (marker hCV11450617, Heterozygous): 0.61
OR_maj, risk of RMI (marker hCV11450617, Major Homozygous): 0.78
OR_min, risk of RMI (marker hCV11450617, Minor Homozygous): 0.68
OR, risk of RMI (marker hCV12107274, heterozygous): 0.78
OR, risk of RMI (marker hCV12107274, major homozygous): 0.55
OR, risk of RMI (marker hCV12107274, minor homozygous): 1.75
OR, risk of RMI (marker hCV15965459, heterozygous): 0.35
OR, risk of RMI (marker hCV15965459, major homozygous): 0.82
OR, risk of RMI (marker hCV15965459, minor homozygous): 0.95
OR_dom, risk of RMI (marker hCV15973230, Dominant): 0.91
OR_het, risk of RMI (marker hCV15973230, Heterozygous): 0.91
OR_maj, risk of RMI (marker hCV15973230, Major Homozygous): 0.60
OR_min, risk of RMI (marker hCV15973230, Minor Homozygous): 0.71
OR, risk of RMI (marker hCV15974589, heterozygous): 0.67
OR, risk of RMI (marker hCV15974589, major homozygous): 0.43
OR, risk of RMI (marker hCV15974589, minor homozygous): 1.51
OR, risk of RMI (marker hCV16054991, heterozygous): 0.53
OR, risk of RMI (marker hCV16054991, major homozygous): 0.88
OR, risk of RMI (marker hCV16054991, minor homozygous): 0.43
OR, risk of RMI (marker hCV25472673, heterozygous): 0.61
OR, risk of RMI (marker hCV25472673, major homozygous): 1.13
OR, risk of RMI (marker hCV25472673, minor homozygous): 0.49
OR, risk of RMI (marker hCV25623506, heterozygous): 3.29
OR, risk of RMI (marker hCV25623506, major homozygous): 0.65
OR, risk of RMI (marker hCV25623506, minor homozygous): 0.00
OR_dom, risk of RMI (marker hCV25745415, Dominant): 0.92
OR, risk of RMI [4]: 0.73
OR_het, risk of RMI [4]: 0.73
OR, risk of RMI [5]: 0.56
OR_maj, risk of RMI [5]: 0.56
OR, risk of RMI [6]: 5.87
OR_min, risk of RMI [6]: 5.87
OR, risk of RMI (marker hCV25749177, heterozygous): 0.74
OR, risk of RMI (marker hCV25749177, major homozygous): 0.57
OR, risk of RMI (marker hCV25749177, minor homozygous): 2.81
OR_dom, risk of RMI (marker hCV25963691, Dominant): 0.64
OR_het, risk of RMI (marker hCV25963691, Heterozygous): 0.62
OR_maj, risk of RMI (marker hCV25963691, Major Homozygous): 0.71
OR_min, risk of RMI (marker hCV25963691, Minor Homozygous): 0.72
Risk Reduction by Statin (Pravastatin vs. Placebo) OR: approximately 0.5
Risk Reduction by Statin (Pravastatin vs. Placebo) OR (listed as Pravastatin): 0.54

Reference: patent publication US7799530B2, “Genetic polymorphisms associated with cardiovascular disorders and drug response, methods of detection and uses thereof” (Celera Corporation, priority 2005, dated 2010)
